In patent publication US11891640B1, “Crop protection in algae by exogenous terpene expression” (priority 2021, dated 2024):

Tested on: Brachionus plicatilis (rotifers)
Experiment: Cultivation assay of N. oceanica in the presence of rotifers (culture stability against predation)
Assay type: in vivo
Conditions: rotifer concentrations between 10-50/mL
From the text: FIGS. 3A-3B show culture stability in the presence of predation by rotifers. Provided are graphs showing (A) a culture including wild type Nannochloropsis oceanica (N. oceanica) exposed to increasing Brachionus plicatilis (rotifers) concentrations and (B) a transformed culture including N. oceanica strain 24N having a […]-322581 (Hypoxylon sp. CI-4A, sesquiterpene synthase) gene. Cultivation assays of N. oceanica in the presence of rotifers, which are common algae grazers and culture-crash inducing agents, indicate up to 50% increased survival of the sesquiterpene producing cultures over controls, indicating potential for algae crop-protection applications. Additional details follow. FIGS. 3A-3B show culture stability against predation.

C=C(C)[C@@H]1CC=C2CCC[C@@H](C)[C@]2(C)C1 [aristolochene]
predation resistance: significantly increased predation resistance
